According to patent US8114903B2, “Cytokine modulators using cyclic glycerides of essential polyunsaturated fatty acids” (BTG International Limited, priority 2005, dated 2012):
Read-outs that look alike come from different tables or passages of the source.

Tests used:
[1] = test system: TGF-β1; experiment: TGF-β1 production by spleen mononuclear cells of C57/BL mice dosed orally with 2 GLA MG formal (ELISA); format: in vivo; details: for Spleen mononuclear cell TGFβ production: Con A and unstimulated data combined, n=9/group, mean ± SEM
Description: C57/BL mice were dosed orally with 2 GLA MG formal at two doses of 50 and 150 ul for eight days. The compound was supplied in 8 separate tubes to be stored at 4° C. prior to dosing but warmed to 25° C. before use.
Data were therefore combined for the purposes of statistical analysis (n=9/group). Data were analysed using Graphpad Instat.

[2] = Storage stability in air at room temperature; format: physicochemical; details: similar to GLA, best stored long term in a cool place under nitrogen
Description: For the purposes of this exemplification, the synthesis of this ester was carried out by acylation of the commercially available glycerol formal mixture using γ-linolenoyl chloride. By this method a mixture of two products is formed and these were separable by column chromatography. The undesired by-product is eluted off the column first; further elution gives the desired acetal-ester.

[3] = test system: TGF-β1; details: monoglyceride 50 μg
Description: Solublization of Sn-2 monoglyceride was performed using ethyl alcohol or DMSO for in vitro work on human peripheral blood mononuclear cells (PBMCs). […] SJL mice were fed sn-2 GLA of Example 1 at three doses (50, 125 and 250 μl) for seven days by gavage. […] After seven days animals were killed and the brain, liver and spleen were removed the liver and brain frozen at −70° C. and mononuclear cells were isolated from spleens by sieving and density centrifugation on Lymphoprep (Sigma Chemical Co) and cultured at 37° C. in 5% CO2 atmosphere in 5 ml culture tubesat a cell density of 1×10^6 cells/ml in RPMI 1640 medium in 5% foetal calf serum (FCS). Cells were cultured with and without 1 μg/ml or […] concanavalin A (Con A) for approximately 20 hours and the supernatants removed and stored at −70° C. until required. Mouse […] was measured in supernatants using a commercially available ELISA (Promega, Madison Wis.).

[4] = mouse, in vivo

**Q.** With `CCCCC/C=C\C/C=C\C/C=C\CCCCC(=O)OC1COCOC1` [GLA 2-MG-F, 5-(γ-linolenoyloxy)-1,3-dioxan] as the compound, how does the “Spleen mononuclear cell TGFβ production” value ([1]; 50 ul orally for eight days) read?
**A.** 90.9 ± 5.2 pg/mL

**Q.** What about the “Increase of spleen mononuclear cell TGFβ production vs controls” value ([1]; 150 ul orally for eight days) of the same compound?
**A.** P < 0.0001 ↑ 103%

**Q.** What about the “Spleen mononuclear cell TGFβ production” value ([1]; 150 ul orally for eight days) of the same compound?
**A.** 158.6 ± 7.5 pg/mL

**Q.** What about the Stability in air [2] of the same compound?
**A.** stable in air at room temperature for short periods (days)

**Q.** Which “Change % of TGF-β1 production vs control” value ([3]; Con A 0 μg/ml) does the source give for `CCCCC/C=C\C/C=C\C/C=C\CCCCC(=O)OC(CO)CO` [γ-linolenic acid monoglyceride] here?
**A.** 80%

**Q.** What about the “TGF-β1 production from spleen PBMCs, unstimulated” value ([3]; Con A 0 μg/ml, fed by gavage for seven days, cells cultured about 20 hours) of the same compound?
**A.** 377 pg/mL

**Q.** What about the “Change % of TGF-β1 production vs control” value ([3]; Con A 1 μg/ml) of the same compound?
**A.** 79%

**Q.** And the “TGF-β1 production from spleen PBMCs, stimulated (Con A)” value ([3]; Con A 1 μg/ml, fed by gavage for seven days, cells cultured about 20 hours)?
**A.** 409 pg/mL

**Q.** And the “Change % of TGF-β1 production vs control” value ([3]; Con A 25 μg/ml)?
**A.** 42%

**Q.** And the “TGF-β1 production from spleen PBMCs, stimulated (Con A)” value ([3]; Con A 25 μg/ml, fed by gavage for seven days, cells cultured about 20 hours)?
**A.** 480 pg/mL

**Q.** And the Regurgitation after gavage [4]?
**A.** prone to regurgitation
